Columns and labels:
Trypanosoma cruzi [1] = assay: microbe, parasite or virus in culture; assay type: functional, Tulahuen LacZ, Clone C4; conditions: Trypanosoma cruzi, Tulahuen LacZ, Clone C4
[2] = DNDI: Cytotoxicity against L-6 rat myoblasts from skeletal muscle cells; conditions: L6 rat skeletal muscle myoblast cells, IC50
Trypanosoma cruzi [3] = assay: microbe, parasite or virus in culture; assay type: functional, organism-based, Tulahuen LacZ, Clone C4; conditions: Trypanosoma cruzi, Tulahuen LacZ, Clone C4

Row | SMILES | IC90 (Trypanosoma cruzi [1]) [nM] | IC50 (Trypanosoma cruzi [3]) [nM] | IC50 [2] [nM]
1 | Cc1cc(C(=O)N2CCC(NC(c3ccc(C(F)(F)F)cc3)c3cccnc3)CC2)n(C)n1 (stereo unspecified) | 773 | 264 | > 100000
2 | O=C(C1CCC1)N1CCN(C(c2cncnc2)c2ccc(Cl)cc2F)CC1 (stereo unspecified) | 868 | 412 | > 100000
3 | Cc1cc(C(=O)NC2CCN(C(c3ccc(C#N)cc3)c3cccnc3)CC2)on1 (stereo unspecified) | 688 | 196 | > 100000
4 | Cc1ncoc1C(=O)NC1CCN(C(c2ccc(C#N)cc2)c2cccnc2)CC1 (stereo unspecified) | 320 | 183 | > 100000
5 | Cc1nc(C(=O)N2CCC(NC(c3ccc(C(F)(F)F)cc3)c3cccnc3)CC2)co1 (stereo unspecified) | 968 | 590 | > 100000
6 | Cc1cc(C(=O)NC2CCN(C(c3ccc(C#N)cc3)c3cccnc3)CC2)[nH]n1 (stereo unspecified) | 670 | 236 | > 100000
7 | Cc1ncsc1C(=O)N1CCN(C(c2ccc(C#N)cc2)c2cccnc2)CC1 (stereo unspecified) | > 1000 | 513 | > 100000
8 | N#Cc1ccc(C(c2cccnc2)N2CCC(NC(=O)c3ccno3)CC2)cc1 (stereo unspecified) | 671 | 220 | > 100000
9 | Cc1cc(C(=O)N2CCC(NC(c3ccc(C(F)(F)F)cc3)c3cccnc3)CC2)on1 (stereo unspecified) | 779 | 363 | > 100000
10 | Cc1nocc1C(=O)N1CCC(NC(c2ccc(C(F)(F)F)cc2)c2cccnc2)CC1 (stereo unspecified) | 584 | 164 | > 100000
11 | CC(C)(C)OC(=O)N1CCN(C(c2cccnc2)c2ccc(C#N)cc2F)CC1 (stereo unspecified) | 940 | 532 | > 100000
12 | Cc1nc(C(=O)N2CCC(NC(c3ccc(C(F)(F)F)cc3)c3cccnc3)CC2)cs1 (stereo unspecified) | 808 | 326 | > 100000
13 | CC(C)(C)C(=O)N1CCN(C(c2ccc(C#N)cc2)c2cccnc2)CC1 (stereo unspecified) | 696 | 254 | > 100000
14 | Cc1nc(C)c(C(=O)N2CCC(NC(c3ccc(C(F)(F)F)cc3)c3cccnc3)CC2)s1 (stereo unspecified) | 658 | 216 | > 100000

Stronger by IC50 (Trypanosoma cruzi [3]), values ahead:

Row | IC90 (Trypanosoma cruzi [1]) [nM] | IC50 (Trypanosoma cruzi [3]) [nM] | SMILES | IC50 [2] [nM]
15 | 358 | 138 | N#Cc1ccc(C(c2cccnc2)N2CCC(NC(=O)c3nccs3)CC2)cc1 (stereo unspecified) | > 100000
16 | 282 | 126 | Cc1noc(N2CCN(C(c3cncnc3)c3ccc(C(F)(F)F)cc3F)CC2)n1 (stereo unspecified) | > 100000
17 | 272 | 114 | Cc1nc(C(=O)NC2CCN(C(c3ccc(C#N)cc3)c3cccnc3)CC2)co1 (stereo unspecified) | > 100000
18 | 270 | 90 | O=C(c1ccno1)N1CCC(NC(c2ccc(C(F)(F)F)cc2)c2cccnc2)CC1 (stereo unspecified) | > 100000
19 | 470 | 69.5 | Cc1oncc1C(=O)N1CCC(NC(c2ccc(C(F)(F)F)cc2)c2cccnc2)CC1 (stereo unspecified) | > 100000
20 | 131 | 58.5 | Cc1ncsc1C(=O)N1CCN(C(c2cccnc2)c2ccc(C(F)(F)F)cc2F)CC1 (stereo unspecified) | 96900
21 | 455 | 57 | O=C(c1nccs1)N1CCC(NC(c2ccc(C(F)(F)F)cc2)c2cccnc2)CC1 (stereo unspecified) | > 100000
22 | 103 | 50 | Cc1cc(C(=O)NC2CCN(C(c3ccc(C#N)cc3)c3cccnc3)CC2)no1 (stereo unspecified) | > 100000
23 | 159 | 49.5 | N#Cc1ccc(C(c2cccnc2)N2CCN(c3nccs3)CC2)cc1 (stereo unspecified) | > 100000
24 | 92 | 36.5 | Nc1nc(N2CCN(C(c3cccnc3)c3ccc(C(F)(F)F)cc3F)CC2)no1 (stereo unspecified) | 57800
25 | 118 | 25 | FC(F)(F)c1ccc(C(NC2CCN(c3cncs3)CC2)c2cccnc2)cc1 (stereo unspecified) | 59900
26 | 19.5 | 7 | CC(C)(C)OC(=O)N1CCC(NC(c2ccc(C(F)(F)F)cc2)c2cncs2)CC1 (stereo unspecified) | 61300
27 | 10.4 | 4.48 | N#Cc1ccc(C(c2cccnc2)N2CCC(NC(=O)c3c(F)cccc3C(F)(F)F)CC2)cc1 (stereo unspecified) | > 100000

— ChEMBL document CHEMBL1862790, “Optimisation of fenarimol series for the treatment of Chagas disease”
